Experimental data from patent publication US8105796B2, “Regulation of expression of PI3Kβ protein in tumors” (Universita' Degli Studi di Torino, priority 2007, dated 2012).

What was measured:
[1] = system: PI3Kβ^+/+ MEFs; test: Proliferation curve of mouse embryonic fibroblasts (MEFs) with p110β inhibitors; assay type: cell-based
Description: FIG. 3. PI3Kβ^KR expression dosage inversely correlates with phenotype severity. a) MEFs were derived from normal (PI3Kβ^KR/KR(High)) or abnormal PI3Kβ^KR/KR (Low)) embryos and the expression level of the PI3Kβ^KR/KR protein was analyzed by SDS-PAGE and immunoblotting, using the indicated antibodies. b) analysis of p110β catalytic activity. Lipid kinase assay was performed on p110β immunoprecipitated from wild type (PI3Kβ^+/+) and PI3Kβ^KR/KR(High) MEFs. c) proliferation curve of mutant MEFs with high and low PI3Kβ^KR expression levels compared to that of wild-type MEFs with or without 100 nM TGX-221 treatment (TGX).
Since p110β is activated downstream growth factor receptors, and cell growth is the driving force during embryonic development, the present inventors analyzed cell proliferation of PI3Kβ^KR/KR(High), PI3Kβ^KR/KR(Low) and PI3Kβ^+/+ MEFs.

[2] = system: Akt/PKB phosphorylation in liver; test: Insulin-stimulated Akt phosphorylation in liver of treated mice; assay type: in vivo, mouse
Description: FIG. 5. After insulin stimulation, Akt phosphorylation declines in PI3Kβ^KR/KR liver faster than controls. Phosphorylation of Erk1/2 and Akt (on Thr308 and Ser473) in livers of mice of the given genotype with and without TGX-155 treatment. Lower panel: quantification of Akt phosphorylation on Ser473 (n=5)
To test this hypothesis, Akt/PKB phosphorylation was tested in wild-type and mutant mice in tissues known to be particularly sensitive to insulin signaling like the liver.

[3] = system: wild-type (PI3Kβ^+/+/neuT) tumor derived mammary gland cancer cells; test: Proliferation curves of cultured tumor derived mammary gland cancer cells; assay type: cell-based, mouse; details: wild-type tumor cells (FIG. 10)
Description: FIG. 10. Requirement of PI3Kβ for cell proliferation of tumor derived mammary gland cancer cell lines. Proliferation curves of cultured tumor cells of the two genotypes in the absence or presence of TGX-155 (10 μM) and TGX-221 (100 nM)p110β selective inhibitors. Statistical significance: wild-type cells vs all other conditions; other pairs of datasets: n.s.
Moreover, to further test if the protection against breast cancer development was intrinsic to the lack of the kinase activity, tumor cells from PI3Kβ^KR/KR and PI3Kβ^+/+ mice were cultured in the presence of p110β selective inhibitors, TGX-155 and TGX-221.

| SMILES | growth rate (cell proliferation) of MEFs ([1]; PI3Kβ^+/+ MEFs treated with TGX-155, versus controls) | Akt phosphorylation after 5 minutes of insulin stimulation ([2]; liver of wild type mice treated with TGX-155, 5 minutes of insulin stimulation (FIG. 5)) | decline of Akt activation after insulin stimulation ([2]; liver, later time of insulin stimulation, versus untreated wild-type controls (FIG. 5)) | proliferation of wild-type tumor cells ([3]; TGX-155 10 μM) | growth rate (cell proliferation) of MEFs ([1]; PI3Kβ^+/+ MEFs, 100 nM TGX-221, versus controls (FIG. 3c)) | proliferation of wild-type tumor cells ([3]; TGX-221 100 nM) |
| --- | --- | --- | --- | --- | --- | --- |
| Cc1cc(F)ccc1Oc1cccc2c(=O)cc(N3CCOCC3)[nH]c12 [TGX-155] | growth rate comparable to that of the controls | no differences in Akt phosphorylation | declined significantly faster | significant reduction in proliferation |  |  |
| Cc1cc(C(C)Nc2ccccc2)c2nc(N3CCOCC3)cc(=O)n2c1 (stereo not drawn) [TGX-221] |  |  |  |  | growth rate comparable to that of the controls | significant reduction in proliferation |
